Experimental data: patent US6713509B1, “Controlled release formulation for treating COPD” (SmithKline Beecham Corporation, priority 1999, dated 2004)

How the values were obtained:
[1] = system: PDE 4; test: IC50 ratio (high/low affinity rolipram binding forms of PDE 4); type: biochemical; conditions: IC50 for competing with 1 nM [3H]R-rolipram binding (high affinity form) over IC50 for PDE 4 catalytic activity (low affinity form), 1 uM [3H]-cAMP
Text: This invention covers controlled release formulations which contain a PDE 4 inhibitor, particularly an inhibitor that is specific for PDE 4. A preferred group of inhibitors are those that have an IC50 ratio (high/low binding) of about 0.1 or greater as further described in co-pending U.S. application Ser. No. 08/456,274, now U.S. Pat. No. 6,143,782 and its published counter-part PCT application serial number published Jan. 05, 1995 as WO95/00139; this application is incorporated herein in full by reference as if fully set forth herein. A preferred standard for PDE 4-specific inhibitors which can be used in this invention is one where the compound has an IC50 ratio of about 0.1 or greater; said ratio being the ratio of the IC50 value for competing with the binding of 1 nM of [^3H]R-rolipram to a form of PDE 4 which binds rolipram with a high affinity over the IC50 value for inhibiting the PDE 4 catalytic activity of a form which binds rolipram with a low affinity using 1 uM[^3H]-cAMP as the substrate.

[2] = oral administration of the PDE4 inhibitor in COPD: effect and side effects; type: in vivo
[3] = stability of Carbopol-based controlled release tablet versus moisture level; type: physicochemical; conditions: moisture removed from the system
Text: Low moisture levels in certain Carbopol-based controlled release preparations may compromise the stability of the active ingredient cis-4-cyano-4-[3-(cyclopentyloxy)-4-methoxyphenyl]cyclohexane-1-carboxylic acid. High moisture levels may compromise the release rate of such formulations.
It is not known why this occurs when the moisture level is below 0.5% nor is it known how to stop this from occuring, other than to maintain the specified levels of hydration.
The technique for measuring moisture level in this representative tablet was as follows:
The analysis was performed using a Omnimark MARK2 Moisture Analyzer. The Unit determines the moisture content using Infrared heat to dry the sample at a programmed temperature of 120° Celsius with a standby temperature of 80° Celsius. It calculates the percent loss on drying from the initial weight and the final weight of the sample. The results are printed out as % w/w automatically when the analysis is finished. The analysis usually takes 2 to 3 minutes for one measurement of a sample with a moisture level of less than 1.5%w/w.

With COc1ccc([C@]2(C#N)CC[C@@H](C(=O)O)CC2)cc1OC1CCCC1 [cis-4-cyano-4-[3-(cyclopentyloxy)-4-methoxyphenyl]cyclohexane-1-carboxylic acid] as the compound, how does the “therapeutic ratio (IC50 ratio high/low binding)” value [1] read?
The value was “greater than 0.1”.

What about the “therapeutic effect in COPD” value ([2]; administered orally, at certain doses) of the same compound?
Its value is “achieve an effective therapeutic effect in COPD at certain doses”.

What about the side effects ([2]; as blood levels increase with increased levels of dosing) of the same compound?
The side effects was “undesirable side effects such as those attributed to CNS activity begin to be manifested”.

And the “stability in combination with dibasic calcium phosphate (anhydrous)” value [3]?
Its value is “appears to be unstable when moisture is removed from the system”.
